What is called IC50 is the concentration needed to halve the response being measured.

The values below come from patent US20240336601A1 (Chulalongkorn University, priority 2020, published 2024).

A value given as a limit tells only on which side of the number the result lay.

In test [1] the target is interaction between PD-1 and PD-L1 (Homo sapiens, UniProt Q9NZQ7). The test can be described thus: PD-1/PD-L1 protein-protein interaction assay (ALPHA). The settings on record: 2 nM His-tagged human PD-L1, 0.6 nM PD-1-Fc, AlphaScreen. It counts as binding. (In Alpha technology, singlet oxygen from a donor bead excites a nearby acceptor bead.)
Another test deals with T1, PD-1/PD-L1 interaction (Homo sapiens, UniProt Q9NZQ7).
T1 construct: expressed in transfected cells
In words: PD-1/PD-L1 blockage cell-based bioassay (Jurkat NFAT luciferase / CHO-PDL1 co-culture). As to conditions: Jurkat NFAT cells co-cultured with CHO-PDL1 cells, 6 h, luminescence.

Sequence of interaction between PD-1 and PD-L1 (Q9NZQ7 19-238 limits assumed): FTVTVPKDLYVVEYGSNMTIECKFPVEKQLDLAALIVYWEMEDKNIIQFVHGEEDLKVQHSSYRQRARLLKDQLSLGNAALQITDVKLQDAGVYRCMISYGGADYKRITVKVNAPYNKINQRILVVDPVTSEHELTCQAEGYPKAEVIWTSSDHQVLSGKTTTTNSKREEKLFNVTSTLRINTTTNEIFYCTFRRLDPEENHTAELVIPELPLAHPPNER
T1 sequence (Q9NZQ7 19-290): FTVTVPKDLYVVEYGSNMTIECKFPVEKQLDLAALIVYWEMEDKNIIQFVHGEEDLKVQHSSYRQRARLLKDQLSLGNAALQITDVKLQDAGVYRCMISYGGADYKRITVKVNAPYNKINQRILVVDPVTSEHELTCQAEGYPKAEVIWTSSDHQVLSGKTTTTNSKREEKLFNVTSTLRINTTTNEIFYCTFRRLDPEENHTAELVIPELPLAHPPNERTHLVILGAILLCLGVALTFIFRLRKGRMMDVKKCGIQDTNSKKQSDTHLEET

On to `COc1cc(-n2ncc3c(-c4cccc(-c5ccc(CN6CC[C@@H](O)C6)c(OC)n5)c4Cl)cccc32)cc(OC)c1CNC[C@@H]1CCC(=O)N1` [Example 87, (S)-5-(((4-(4-(2-chloro-3-(5-(((R)-3-hydroxypyrrolidin-1-yl)methyl)-6-methoxypyridin-2-yl)phenyl)-1H-indazol-1-yl)-2,6-dimethoxybenzyl)amino)methyl) pyrrolidin-2-one], for which the half-maximal inhibitory concentration (IC50) in test [1] was 1 to 10 nM; against PD-1/PD-L1 interaction it was more than 2000 nM.
As for `COc1cc(-n2ncc3c(-c4cccc(-c5ccc(CN6CC(C)(C(=O)NC7CC7)C6)c(OC)n5)c4Cl)cccc32)cc(OC)c1CNC[C@H]1C[C@@H](O)C1` [Example 95, 1-((6-(2-chloro-3-(1-(4-((((cis-3-hydroxycyclobutyl)methyl)amino)methyl)-3,5-dimethoxyphenyl)-1H-indazol-4-yl)phenyl)-2-methoxypyridin-3-yl)methyl)-N-cyclopropyl-3-methylazetidine-3-carboxamide], the IC50 in test [1] fell in the range of 1 to 10 nM; against PD-1/PD-L1 interaction, 201 to 2000 nM.
For `COc1cc(-n2ccc3c(-c4cccc(-c5ccc(CN6CC7(CNC(=O)C7)C6)c(OC)n5)c4Cl)cccc32)cc(OC)c1CNC[C@@H]1CCC(=O)N1` [Example 96, (S)-2-((6-(2-chloro-3-(1-(3,5-dimethoxy-4-((((5-oxopyrrolidin-2-yl)methyl)amino)methyl)phenyl)-1H-indol-4-yl)phenyl)-2-methoxypyridin-3-yl)methyl)-2,6-diazaspiro[3.4]octan-7-one], in that order: 1 to 10 nM and 201 to 2000 nM.
Taken in the same sequence, the figures for `CCOC(=O)C1(C)CN(Cc2c(OC)cc(-n3ncc4c(-c5cccc(-c6ccc(CNC[C@@H]7CCC(=O)N7)c(OC)n6)c5Cl)cccc43)cc2OC)C1` [Example 151, ethyl (S)-1-(4-(4-(2-chloro-3-(6-methoxy-5-((((5-oxopyrrolidin-2-yl)methyl)amino)methyl)pyridin-2-yl)phenyl)-1H-indazol-1-yl)-2,6-dimethoxybenzyl)-3-methylazetidine-3-carboxylate] were 1 to 10 nM and less than 200 nM.
As to `COc1cc(-n2ncc3c(-c4cccc(Nc5nc(C(F)F)nc6cc(CN7CC[C@@H](C(=O)O)C7)cnc56)c4C)cccc32)cc(OC)c1CN1CC[C@@H](O)C1` [Example 165, (R)-1-((2-(difluoromethyl)-4-((3-(1-(4-(((R)-3-hydroxypyrrolidin-1-yl)methyl)-3,5-dimethoxyphenyl)-1H-indazol-4-yl)-2-methylphenyl)amino)pyrido[3,2-d]pyrimidin-7-yl)methyl)pyrrolidine-3-carboxylic acid], the values for the concentration for half-maximal inhibition (IC50) (in test [1]; against PD-1/PD-L1 interaction) were less than 1 nM and less than 200 nM, respectively.
Take `COc1cc(-n2ncc3c(-c4cccc(-c5ccc(CN[C@H]6C[C@@H](O)C6)c(OC)n5)c4Cl)cccc32)cc(OC)c1CN[C@H]1C[C@@H](O)C1` [Example 101, cis-3-(((6-(2-chloro-3-(1-(4-(((cis-3-hydroxycyclobutyl)amino)methyl)-3,5-dimethoxyphenyl)-1H-indazol-4-yl)phenyl)-2-methoxypyridin-3-yl)methyl)amino)cylobutanol]: the 50% inhibitory concentration (IC50) in test [1] was less than 1 nM; on PD-1/PD-L1 interaction, less than 200 nM.
Taken in the same sequence, the figures for `CCOC(=O)[C@@H](NCc1c(OC)cc(-n2ncc3c(-c4cccc(-c5ccc(CN6CC7(CNC(=O)C7)C6)c(OC)n5)c4Cl)cccc32)cc1OC)[C@@H](C)O` [Example 145, Ethyl (4-(4-(2-chloro-3-(6-methoxy-5-((7-oxo-2,6-diazaspiro[3.4]octan-2-yl)methyl)pyridin-2-yl)phenyl)-1H-indazol-1-yl)-2,6-dimethoxybenzyl)-L-threoninate] were 1 to 10 nM and 201 to 2000 nM.
For `COc1cc(-n2ncc3c(-c4cccc(-c5ccc(CN6CC7(CNC(=O)C7)C6)c(OC)n5)c4Cl)cccc32)ncc1CNCCO` [Example 132, 2-((6-(2-chloro-3-(1-(5-(((2-hydroxyethyl)amino)methyl)-4-methoxypyridin-2-yl)-1H-indazol-4-yl)phenyl)-2-methoxypyridin-3-yl)methyl)-2,6-diazaspiro[3.4]octan-7-one], in that order: less than 1 nM and less than 200 nM.
Consider `COc1cc(-n2ncc3c(-c4cccc(-c5ccc(CN6CC7(CNC(=O)C7)C6)c(OC)n5)c4F)cccc32)cc(OC)c1CNC[C@@H]1CCC(=O)N1` [Example 135, (S)-2-((6-(2-fluoro-3-(1-(3,5-dimethoxy-4-((((5-oxopyrrolidin-2-yl)methyl)amino)methyl)phenyl)-1H-indazol-4-yl)phenyl)-2-methoxypyridin-3-yl)methyl)-2,6-diazaspiro[3.4]octan-7-one], for which the figures for the IC50 (in test [1]; at PD-1/PD-L1 interaction) were less than 1 nM and less than 200 nM, respectively.
Taken in the same sequence, the figures for `COc1cc(-n2ncc3c(-c4cccc(Nc5nc(C(F)F)nc6cc(CN7CC[C@@H](O)C7)cnc56)c4C)cccc32)cc(OC)c1CN1CC[C@@](C)(C(=O)O)C1` [Example 158, (R)-1-(4-(4-(3-((2-(difluoromethyl)-7-(((R)-3-hydroxypyrrolidin-1-yl)methyl)pyrido[3,2-d]pyrimidin-4-yl)amino)-2-methylphenyl)-1H-indazol-1-yl)-2,6-dimethoxybenzyl)-3-methylpyrrolidine-3-carboxylic acid] were less than 1 nM and less than 200 nM.
In the case of `COc1cc(-n2ccc3c(-c4cccc(-c5cnc(CNC[C@@H]6CCC(=O)N6)c(OC)n5)c4Cl)cccc32)cc(OC)c1CNC[C@@H]1CCC(=O)N1` [Example 65, (S)-5-((((5-(2-chloro-3-(1-(3,5-dimethoxy-4-(((((S)-5-oxopyrrolidin-2-yl)methyl)amino)methyl)phenyl)-1H-indol-4-yl)phenyl)-3-methoxypyrazin-2-yl)methyl)amino)methyl)pyrrolidin-2-one], the results for the concentration for half-maximal inhibition (IC50) (in test [1]; at PD-1/PD-L1 interaction) were 1 to 10 nM and 201 to 2000 nM, respectively.
For `COc1cc(-n2ccc3c(-c4cccc(-c5ccc(CNCC6CNC6)c(OC)n5)c4Cl)cccc32)cc(OC)c1CNC[C@@H]1CCC(=O)N1` [Example 33], in that order: 10 to 100 nM and more than 2000 nM.
Taken in the same sequence, the figures for `COc1cc(-n2ncc3c(-c4cccc(-c5ccc(CN6CC7(CNC(=O)C7)C6)c(OC)n5)c4Cl)cccc32)cc(OC)c1CN1CC(C)(O)C1` [Example 79, 2-((6-(2-chloro-3-(1-(4-((3-hydroxy-3-methylazetidin-1-yl)methyl)-3,5-dimethoxyphenyl)-1H-indazol-4-yl)phenyl)-2-methoxypyridin-3-yl)methyl)-2,6-diazaspiro[3.4]octan-7-one] were less than 1 nM and less than 200 nM.
For `COc1cc(-n2ncc3c(-c4cccc(-c5ccc(CN[C@H]6C[C@@H](O)C6)c(OC)n5)c4Cl)cccc32)cc(OC)c1CN[C@H](CO)C(=O)O` [Example 126, (4-(4-(2-chloro-3-(5-(((cis-3-hydroxycyclobutyl)amino)methyl)-6-methoxypyridin-2-yl)phenyl)-1H-indazol-1-yl)-2,6-dimethoxybenzyl)-D-serine], in that order: less than 1 nM and less than 200 nM.
`COc1cc(-n2ccc3c(-c4cccc(-c5ccc(CNC[C@@H]6CCC(=O)N6)c(OC)n5)c4Cl)cccc32)cc(OC)c1CN1CC(C)(O)C1` [Example 53]: the results for the 50% inhibitory concentration (IC50) (in test [1]; at PD-1/PD-L1 interaction) were less than 1 nM and 201 to 2000 nM, respectively.
With `COc1cc(-n2ncc3c(-c4cccc(-c5ccc(CN[C@H]6C[C@@H](O)C6)c(OC)n5)c4Cl)cccc32)cc(OC)c1CN[C@@H](CO)C(N)=O` [Example 121, (S)-2-((4-(4-(2-chloro-3-(5-(((cis-3-hydroxycyclobutyl)amino)methyl)-6-methoxypyridin-2-yl)phenyl)-1H-indazol-1-yl)-2,6-dimethoxybenzyl)amino)-3-hydroxypropanamide], the results for the IC50 (in test [1]; against PD-1/PD-L1 interaction) were less than 1 nM and 201 to 2000 nM, respectively.
Taken in the same sequence, the figures for `COc1cc(-n2ncc3c(-c4cccc(-c5ccc(CNC[C@@H]6CCC(=O)N6)c(OC)n5)c4Cl)cccc32)cc(OC)c1CN1CC[C@@H](C(=O)O)C1` [Example 117, (R)-1-(4-(4-(2-chloro-3-(6-methoxy-5-(((((S)-5-oxopyrrolidin-2-yl)methyl)amino)methyl)pyridin-2-yl)phenyl)-1H-indazol-1-yl)-2,6-dimethoxybenzyl)pyrrolidine-3-carboxylic acid] were less than 1 nM and less than 200 nM.
Regarding `COc1cc(-n2ncc3c(-c4cccc(-c5ccc(CN6CC(C(C)(C)O)C6)c(OC)n5)c4Cl)cccc32)cc(OC)c1CN1CC2(CNC(=O)C2)C1` [Example 138, 2-(4-(4-(2-chloro-3-(5-((3-(2-hydroxypropan-2-yl)azetidin-1-yl)methyl)-6-methoxypyridin-2-yl)phenyl)-1H-indazol-1-yl)-2,6-dimethoxybenzyl)-2,6-diazaspiro[3.4]octan-7-one], the concentration for half-maximal inhibition (IC50) in test [1] is 1 to 10 nM; against PD-1/PD-L1 interaction it was 201 to 2000 nM.
In the case of `COc1cc(-n2ncc3c(-c4cccc(-c5ccc(CN6CC(C)(C(=O)NC7CC7)C6)c(OC)n5)c4Cl)cccc32)cc(OC)c1CNC[C@@H]1CCC(=O)N1` [Example 92, (S)-1-((6-(2-chloro-3-(1-(3,5-dimethoxy-4-((((5-oxopyrrolidin-2-yl)methyl)amino)methyl)phenyl)-1H-indazol-4-yl)phenyl)-2-methoxypyridin-3-yl)methyl)-N-cyclopropyl-3-methylazetidine-3-carboxamide], the IC50 was less than 1 nM in test [1] and less than 200 nM on PD-1/PD-L1 interaction.
Consider `COc1cc(-n2ncc3c(-c4cccc(-c5ccc(CN6CC(C(C)(C)O)C6)c(OC)n5)c4Cl)cccc32)ncc1CNCCO` [Example 142, 2-(1-((6-(2-chloro-3-(1-(5-(((2-hydroxyethyl)amino)methyl)-4-methoxypyridin-2-yl)-1H-indazol-4-yl)phenyl)-2-methoxypyridin-3-yl)methyl)azetidin-3-yl)propan-2-ol], for which the half-inhibitory concentration (IC50) in test [1] is less than 1 nM; against PD-1/PD-L1 interaction, less than 200 nM.
Consider `COc1cc(-n2ncc3c(-c4cccc(-c5ccc(C6=NCCN6)c(OC)n5)c4Cl)cccc32)cc(OC)c1CN1CC(C)(C(N)=O)C1` [Example 114, 1-(4-(4-(2-chloro-3-(5-(4,5-dihydro-1H-imidazol-2-yl)-6-methoxypyridin-2-yl)phenyl)-1H-indazol-1-yl)-2,6-dimethoxybenzyl)-3-methylazetidine-3-carboxamide], for which the half-maximal inhibitory concentration (IC50) is 1 to 10 nM in test [1] and 201 to 2000 nM on PD-1/PD-L1 interaction.
